Series [1] deals with Staphylococcus aureus. As to the kind of experiment: Assessment of bactericidal activity (DMEM, 10% fetal bovine serum). Format: cell-based. Particulars: 3.2 × 10^6 CFU S. aureus, 1 h in DMEM with 10% fetal bovine serum; head prints 20 mM.
The subject of the next series is actin stress fibers. Put plainly: Actin stress fibers in HUVEC during S. pyogenes infection. Particulars: ML 141 10 μM, 18-20 h, MOI 30, 2 h. In kind it is cell-based, human. The method, then: FIG. 13 is an image depicting ML 141 decreasing actin stress fiber depolymerization during infection. HUVEC were incubated with vehicle control dimethyl sulfoxide (DMSO) or with ML 141 (10 μM) 18-20 h prior to infection with Streptococcus pyogenes at a multiplicity of infection of 30 (2 h). Actin was detected using Alexa Fluor 488 phalloidin. Data are presented as the percentage of HUVEC with no detectable actin stress fibers. 100-200 cells/treatment were evaluated from randomly selected fields. Scale bar is 50 μm (P<0.05 by χ^2 test of association).
For actin assessment, HUVEC were seeded at 6×10^5 cells/ml in 35 mm glass-bottom dishes (MatTek, Ashland, Mass.) that had been coated with Attachment Factor. HUVEC were pretreated with ML 141 or with DMSO and treated with gentamicin as described above. HUVEC were washed three times with PBS and fixed with 4% paraformaldehyde for 30 min, RT. HUVEC were gently washed four times with PBS, permeabilized and blocked with 1% BSA/0.1% Triton (Sigma-Aldrich, T8787). HUVEC were gently washed four times with PBS, probed for actin with Alexa Fluor 488 phalloidin (1:40, Life Technologies, A12379) in PBS (30 min, RT) and washed three more times with PBS. […] A total of 200 HUVEC were assessed for actin stress fiber disassembly from randomly selected fields-of-view. […]

The next series concerns fibronectin. As to the kind of experiment: Fibronectin adhesion assay, HUVEC. Format: cell-based, human. The note with it: ML 141 10 μM, 18-20 h; re-plated 2 h; vehicle 24±4%. The method, then:
FIG. 10C is a graph illustrating that ML 141 decreases cell adhesion to fibronectin-coated surface. HUVEC were pretreated as in FIGS. 10A and 10B, lifted from culture dishes using cell scrapers, and re-plated (2 h) onto non-tissue culture treated plates coated with fibronectin and blocked with bovine serum albumin. Following extensive washes, cells were recovered using trypsin and counted using an Accuri C6 flow cytometer (*p<0.05 by t-test on log-transformed data pooled from 2 independent experiments, n=8/treatment).
HUVEC were plated and pretreated as described for the invasion assay. 96-well, non-tissue culture treated plates (Sarstedt, Newton, N.C.) were coated with fibronectin (20 μg/ml; 2 h; 37° C.), washed with PBS, and blocked with bovine serum albumin (2%, 30 min, RT). HUVEC were lifted from the 35 mm dishes using cell scrapers, 100 μl counted for normalization using the Accuri C6, and 200 μl transferred to the 96-well plate (2 h, 5% CO2, 37° C.). After extensive washes in PBS, cells were removed from the plate using trypsin, washed in FACS buffer, fixed, and 100 μl counted. These cell counts were normalized to those that had been taken prior to plating on the fibronectin-coated plate.

For series [2], the system named is Staphylococcus aureus. Put plainly: S. aureus invasion of monocytic cell line U937, flow cytometry. Particulars: pretreatment 0.05 μM, 1 hour. Format: cell-based. The method, then: FIG. 1 illustrates ML 141 limits host cell invasion. The monocytic cell line U937 was pretreated with the vehicle control dimethyl sulfoxide (DMSO) or with ML 141 (0.05 μM, 1 h) followed by infection with Alexa Fluor 488-labeled S. aureus (1 hour). The % of 488^+ cells decreased with ML 141 treatment.
Specific pharmacologic inhibition of CDC42 has been examined to determine whether it is sufficient in the inhibition of host cell invasion by S. aureus. Host cell cytotoxicity was undetectable below 30 μM in vitro. The highest concentration of ML 141 introduced in vivo without detectable toxicity was 100 mg/kg body weight [BW]. The compound was dissolved in polyethylene glycol and administered as a single intraperitoneal injection to C57BL/6 mice.
(In general: Flow cytometry measures light scatter and fluorescence of single cells or particles in a stream.)

In series [3] the test system is Human umbilical vein endothelial cells. As to the kind of experiment: Cytotoxicity assay (XTT), HUVEC. Format: cell-based. Particulars: HUVEC treated overnight, PEG solvent. The method, then:
FIG. 6A illustrates that neither cytotoxicity nor bactericidal activity is detected. Human umbilical vein endothelial cells (HUVEC) were pretreated (18 hours) with the vehicle control polyethylene glycol (PEG) or with ML 141 and viability assessed using an XTT assay. The formazan dye produced in living cells was detectable at an absorbance wavelength of 490 nanometers and used as an indicator of cell viability. Absorbance values were not different amongst the groups (p>0.05 by one-way ANOVA; n=3/treatment).
HUVEC are plated at a density of 1.2×10^4 cells/ml into 96-well dishes coated with Attachment Factor. The next day, cells are pretreated with the vehicle control DMSO or with ML 141 (18 hours). An XTT-reducing assay is performed and absorbance read at 490 nanometers using a Bio-Rad plate reader.

With `COc1ccc(C2CC(c3ccccc3)=NN2c2ccc(S(N)(=O)=O)cc2)cc1` (centres unmarked) [ML 141, 4-[3-(4-methoxyphenyl)-5-phenyl-3,4-dihydropyrazol-2-yl]benzenesulfonamide], the “CFU/mL (×10^9 ± SEM), Compound” value with Staphylococcus aureus [1] is 0.9 ± 0.09 ×10^9 CFU/mL. Also, the “reordering of actin stress fibers during S. pyogenes infection” value in the series on actin stress fibers is recorded as “less reordering of actin stress fibers”. Moreover, the “adherence of HUVEC to fibronectin-coated plates” value in the series on fibronectin was 14±2%. In addition, the “invasion by S. aureus (% of 488+ cells)” value in the series with Staphylococcus aureus [2] is “decreased invasion”. The “Cytotoxicity (XTT, absorbance 490 nm)” value in series [3] is “not detectable”.

Values taken from patent publication US10183032B2, “Methods for treating bacterial infection” (Ball State Innovation Corporation, priority 2012, dated 2019).
